In patent US10702506B2, “Small molecule inhibitors of pendrin ion exchange and pharmaceutical compositions” (THE REGENTS OF THE UNIVERSITY OF CALIFORNIA, priority 2016, dated 2020):

Legend:
pendrin [1] = molecular target: T1, pendrin (Mus musculus, UniProt Q9R155); assay: In vitro measurement of furosemide effect on pendrin activity
T1 sequence (Q9R155 1-780): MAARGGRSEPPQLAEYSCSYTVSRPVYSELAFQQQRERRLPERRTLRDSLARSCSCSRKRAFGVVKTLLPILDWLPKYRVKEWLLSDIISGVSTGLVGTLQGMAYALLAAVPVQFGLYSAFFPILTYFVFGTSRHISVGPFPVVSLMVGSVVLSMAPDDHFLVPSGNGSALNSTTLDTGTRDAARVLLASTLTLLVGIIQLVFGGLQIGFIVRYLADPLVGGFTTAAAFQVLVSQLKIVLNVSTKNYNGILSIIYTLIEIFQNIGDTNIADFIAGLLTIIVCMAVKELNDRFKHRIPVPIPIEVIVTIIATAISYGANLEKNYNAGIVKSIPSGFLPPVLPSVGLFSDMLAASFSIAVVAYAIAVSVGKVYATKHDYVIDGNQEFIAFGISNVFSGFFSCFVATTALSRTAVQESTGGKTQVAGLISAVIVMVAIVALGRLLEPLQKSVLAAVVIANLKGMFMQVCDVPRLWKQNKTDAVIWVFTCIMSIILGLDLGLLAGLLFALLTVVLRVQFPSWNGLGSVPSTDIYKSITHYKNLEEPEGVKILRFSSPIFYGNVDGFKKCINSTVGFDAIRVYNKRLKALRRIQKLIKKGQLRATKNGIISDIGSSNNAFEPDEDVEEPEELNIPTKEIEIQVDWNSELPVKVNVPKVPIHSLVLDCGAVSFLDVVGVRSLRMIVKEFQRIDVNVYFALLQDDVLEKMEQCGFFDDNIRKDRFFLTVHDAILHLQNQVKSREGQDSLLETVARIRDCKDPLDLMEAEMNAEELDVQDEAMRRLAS

pendrin [2] = molecular target: T2, pendrin (Homo sapiens, UniProt O43511); assay: YFP (EYFP-HIF) fluorescence quenching assay of pendrin-mediated Cl− exchange (SCN−, I−, NO3−) in FRT cells; high-throughput screen; type: cell-based; parameters: expressed in transfected cells; details: FRT, 25 μM; read-out: Inh. (%), percentage inhibition of human pendrin
T2 sequence (O43511 1-780): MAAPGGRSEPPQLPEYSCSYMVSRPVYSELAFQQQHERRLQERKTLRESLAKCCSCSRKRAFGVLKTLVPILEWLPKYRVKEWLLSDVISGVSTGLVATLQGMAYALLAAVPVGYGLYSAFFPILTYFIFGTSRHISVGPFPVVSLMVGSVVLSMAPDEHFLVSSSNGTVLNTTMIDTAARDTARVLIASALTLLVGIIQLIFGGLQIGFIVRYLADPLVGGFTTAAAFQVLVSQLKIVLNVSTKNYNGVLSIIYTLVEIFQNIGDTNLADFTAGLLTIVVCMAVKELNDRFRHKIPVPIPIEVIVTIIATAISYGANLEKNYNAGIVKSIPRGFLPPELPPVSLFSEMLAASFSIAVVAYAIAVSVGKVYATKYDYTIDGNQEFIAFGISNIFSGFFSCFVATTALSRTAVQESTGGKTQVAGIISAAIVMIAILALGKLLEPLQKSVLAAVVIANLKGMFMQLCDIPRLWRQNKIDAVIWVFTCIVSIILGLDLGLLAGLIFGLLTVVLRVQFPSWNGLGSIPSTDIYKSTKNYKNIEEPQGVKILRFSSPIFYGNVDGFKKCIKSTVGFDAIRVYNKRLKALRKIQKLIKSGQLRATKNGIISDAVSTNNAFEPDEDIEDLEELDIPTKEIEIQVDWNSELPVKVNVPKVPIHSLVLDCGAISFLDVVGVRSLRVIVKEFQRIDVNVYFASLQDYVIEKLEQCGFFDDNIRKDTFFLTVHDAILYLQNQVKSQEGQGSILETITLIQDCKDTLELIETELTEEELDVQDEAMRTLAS
Procedure: Fischer rat thyroid (FRT) cells were cultured in Kaign's modified Ham's F12 medium supplemented with 10% FBS, 2 mM L-glutamine, 100 U/ml penicillin, […], […] myo-inositol and […] ascorbic acid. For high-throughput screening, FRT cells were stably transfected with EYFP-H148Q/I152L/F46L (EYFP-HIF; in pcDNA3.1/Hygro (+)), isolated using 0.25 mg/ml hygromycin B, and then transfected with pcDNA3.1 (+) encoding human pendrin with clonal cell lines selected using 0.5 mg/ml G418.
High-throughput screening was performed using a semi-automated screening platform (Beckman, Fullerton, Calif.) configured as described. FRT cells expressing human pendrin and EYFP-HIF were plated in 96-well black-walled, clear-bottom tissue culture plates (Corning, Corning, N.Y.) at a density of 20,000 cells/well, and cultured to confluence over 48 h. For screening, plates were washed twice with PBS (in mM: 137 NaCl, 2.7 KCl, 1.1 KH2PO4, 8.1 Na2HPO4, 0.9 CaCl2), 0.5 MgCl2) prior to addition of 100 μl PBS containing test compounds. Screening was done with ˜36,000 compounds from ChemDiv (San Diego, Calif.), TimTec (Newark, Del.), and Asinex (Winston-Salem, N.C.). After 10 min incubation with test compound, plates were transferred to a Tecan Infinite M1000 plate reader (Tecan, Morrisville, N.C.) for fluorescence assay of pendrin activity. The assay duration was 10 s with initial fluorescence intensity recorded for 2 s prior to addition of 100 μl of NaSCN-substituted PBS (137 mM NaCl replaced with NaSCN). All assay plates contained negative controls (DMSO). In some experiments Cl^− exchange for I^− or NO3^− was measured similarly using NaI and NaNO3-substituted PBS. Control experiments to measure basal ion transport rates were done in FRT cells expressing EYFP-HIF without pendrin.
FRT cells were chosen for screening due to their low intrinsic permeability to anions that are transported by pendrin. As depicted in FIGS. 1A and 2A, pendrin activity was assayed from the kinetics of the halide-sensitive fluorescent protein EYFP-HIF in response to addition of a SCN^−-containing solution to drive pendrin-mediated Cl^−/SCN^−. Pendrin inhibition reduces the rate of EYFP-HIF quenching. PDSinh-A01 land PDSinh-C01 decreased pendrin-mediated Cl^−/SCN^− and Cl^−/I^− exchange in a concentration-dependent manner, as measured by YFP fluorescence quenching. […] Because the only previously-described pendrin inhibitor is the weakly active compound niflumic acid, no positive control was included in the screening plates.

effect on pendrin activity (pendrin [1]) | inhibition at 25 µM (pendrin [2]) [%] | SMILES
no effect | – | NS(=O)(=O)c1cc(C(=O)O)c(NCc2ccco2)cc1Cl [furosemide]
– | 57 | Cn1nc(COc2ccc(F)cc2)c2c1CCN(C(=O)Nc1cccc(C(F)(F)F)c1)C2
– | 54 | CCc1ccc(NC(=O)N2CCc3c(c(COc4ccccc4)nn3C)C2)cc1
– | 69 | COc1ccc(NC(=O)N2CCc3c(c(COc4ccccc4)nn3C)C2)cc1F
– | 77 | CSc1ccc(NC(=O)N2CCc3c(c(COc4ccccc4)nn3C)C2)cc1
– | 49 | Cc1ccc(NC(=O)N2CCc3c(c(COCc4ccc(Cl)cc4)nn3C)C2)cc1C
– | 60 | Cn1nc(COc2cccc(F)c2)c2c1CCN(C(=O)Nc1cccc(Cl)c1)C2
– | 58 | Cc1ccc(NC(=O)N2CCc3c(c(COc4ccc(F)cc4)nn3C)C2)cc1C
– | 49 | CCc1ccc(NC(=O)N2CCc3c(c(COCc4ccc(F)cc4Cl)nn3C)C2)cc1
– | 61 | Cc1ccc(NC(=O)N2CCc3c(c(COc4ccccc4)nn3C)C2)cc1
– | 66 | Cn1nc(COc2ccc(F)cc2)c2c1CCN(C(=O)Nc1ccc(Cl)cc1)C2
– | 48 | Cc1ccc(NC(=O)N2CCc3c(c(COCc4ccc(F)cc4Cl)nn3C)C2)cc1C
– | 61 | Cc1ccc(NC(=O)N2CCc3c(c(COc4ccc(F)cc4)nn3C)C2)cc1Cl
– | 54 | Cn1nc(COc2ccc(F)cc2)c2c1CCN(C(=O)Nc1ccc(F)c(Cl)c1)C2
– | 64 | Cc1ccc(NC(=O)N2CCc3c(c(COc4ccccc4)nn3C)C2)cc1C
– | 53 | Cc1cc(-c2cc(S(=O)(=O)NC3CCCc4ccccc43)c(C)s2)[nH]n1 (centres unmarked)
– | 53 | COc1ccc(NC(=O)N2CCc3c(c(COc4ccc(F)cc4)nn3C)C2)cc1F
– | 49 | Cc1ccc(NC(=O)N2CCc3c(c(COCc4cccc(F)c4)nn3C)C2)cc1Cl
– | 45 | CSc1cccc(NC(=O)N2CCc3c(c(COc4ccccc4)nn3C)C2)c1
– | 72 | Cn1nc(COc2ccccc2)c2c1CCN(C(=O)Nc1ccc(Cl)cc1)C2
